The text below walks through data of ChEMBL document CHEMBL1139621, “Acyclic cyanamide-based inhibitors of cathepsin K” (Bioorg Med Chem Lett, 2005).

Molecules are shown by their SMILES.

Experiment [1] addresses T1, Cathepsin K (Homo sapiens, UniProt P43235).
T1 sequence (P43235 whole entry): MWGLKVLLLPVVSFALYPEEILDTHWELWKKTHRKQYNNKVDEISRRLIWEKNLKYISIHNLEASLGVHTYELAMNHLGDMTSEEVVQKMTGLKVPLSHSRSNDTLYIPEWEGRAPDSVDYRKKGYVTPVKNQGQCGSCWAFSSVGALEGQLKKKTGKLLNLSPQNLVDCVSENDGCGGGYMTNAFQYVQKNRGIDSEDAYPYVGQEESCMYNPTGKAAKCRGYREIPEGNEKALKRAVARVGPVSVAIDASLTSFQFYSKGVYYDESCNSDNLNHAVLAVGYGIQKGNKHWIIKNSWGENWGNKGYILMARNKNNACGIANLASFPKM
The experiment in a line: Inhibition constant against human cathepsin K.

Experiment [2] addresses T1, Cathepsin K. The experiment in a line: Inhibition constant against human cathepsin K in fluorescence assay using Cbz-Phe-Arg-AMC.
The next experiment concerns the target Procathepsin L (Homo sapiens, UniProt P07711). As to the kind of experiment: Inhibition constant against human cathepsin L using Cbz-Phe-Arg-AMC.
For another experiment, the target named is Cathepsin B (Homo sapiens, UniProt P07858). As to the kind of experiment: Inhibition constant against human cathepsin B in fluorescence assay using Cbz-Phe-Arg-AMC.
A further experiment addresses T2, Pro-cathepsin H (Homo sapiens, UniProt P09668).
T2 sequence (P09668 whole entry): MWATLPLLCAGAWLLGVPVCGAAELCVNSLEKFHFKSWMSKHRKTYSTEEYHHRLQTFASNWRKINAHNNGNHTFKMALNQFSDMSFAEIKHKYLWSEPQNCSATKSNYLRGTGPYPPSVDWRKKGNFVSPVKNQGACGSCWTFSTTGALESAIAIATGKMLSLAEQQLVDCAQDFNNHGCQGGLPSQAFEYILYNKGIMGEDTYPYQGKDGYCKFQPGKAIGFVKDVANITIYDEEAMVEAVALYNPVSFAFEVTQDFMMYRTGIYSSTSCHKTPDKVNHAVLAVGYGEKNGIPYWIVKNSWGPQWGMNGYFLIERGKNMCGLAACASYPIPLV
The experiment in a line: Inhibition constant against human cathepsin H using L-Arg-b-naphthalamide.

For experiment [3], the target named is T3, Cathepsin K (Rattus norvegicus, UniProt O35186).
T3 sequence (O35186 whole entry): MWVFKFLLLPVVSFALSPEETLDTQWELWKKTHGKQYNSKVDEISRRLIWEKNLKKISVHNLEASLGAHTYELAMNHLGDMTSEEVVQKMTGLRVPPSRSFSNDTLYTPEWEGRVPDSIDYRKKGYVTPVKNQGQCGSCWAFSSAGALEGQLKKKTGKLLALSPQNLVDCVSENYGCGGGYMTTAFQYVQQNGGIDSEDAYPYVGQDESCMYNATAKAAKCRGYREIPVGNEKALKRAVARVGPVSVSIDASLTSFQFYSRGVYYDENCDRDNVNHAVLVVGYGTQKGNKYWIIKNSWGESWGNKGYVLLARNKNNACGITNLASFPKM
As to the kind of experiment: Inhibition constant against rat cathepsin K.

Chain of Procathepsin L (P07711 whole entry): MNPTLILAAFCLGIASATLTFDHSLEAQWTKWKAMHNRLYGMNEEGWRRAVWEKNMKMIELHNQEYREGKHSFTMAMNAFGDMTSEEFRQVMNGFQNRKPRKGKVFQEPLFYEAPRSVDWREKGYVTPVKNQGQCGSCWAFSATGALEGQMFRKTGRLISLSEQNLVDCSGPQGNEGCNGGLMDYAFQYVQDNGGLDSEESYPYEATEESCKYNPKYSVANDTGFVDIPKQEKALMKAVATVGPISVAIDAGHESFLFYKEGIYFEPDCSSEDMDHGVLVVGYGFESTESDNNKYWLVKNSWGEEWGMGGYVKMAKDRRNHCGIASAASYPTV

`CC(C)(C)OC(=O)[C@@H]1CCCN1C#N` gave a Ki at Cathepsin K [1] of 60 nM. This lies in the double-digit nanomolar range.

On to `CCN(C#N)NC(=O)O[C@@H](C)CC1CCCCC1`, for which the Ki on Cathepsin K [2] was found to be 0.003 nM.

On to `C[C@H](C(=O)O[C@@H](C)CC1CCCCC1)N(C)C#N`, for which the Ki on Cathepsin K [2] is greater than 13000 nM.

For `CC(C)N(C#N)NC(=O)O[C@@H](C)CC1CCCCC1`, the Ki was found to be 0.79 nM on Procathepsin L, 1.3 nM on Cathepsin B, 0.019 nM on Cathepsin K [2] and 0.46 nM at Pro-cathepsin H.

In the case of `CC(C)CN(C#N)NC(=O)O[C@@H](C)CC1CCCCC1`, the affinity on Cathepsin K [2] corresponds to a Ki of 0.004 nM. This lies in the picomolar range.

In turn, `N#CN1CCCC1` [CYANO-PYRROLIDINE] registered an inhibitory constant (Ki) at Cathepsin K [1] of 2100 nM. Turning to `C[C@H](C#N)NC(=O)O[C@@H](C)CC1CCCCC1`, the Ki at Cathepsin K [2] is greater than 13000 nM.

In turn, `C[C@@H](CC1CCCCC1)OC(=O)NN(C#N)Cc1ccccc1` gave a Ki at Cathepsin K [2] of 0.006 nM. That is a picomolar value. In the case of `C[C@@H](CC1CCCCC1)OC(=O)NN(C)C#N`, the Ki at Procathepsin L is 0.025 nM; at Cathepsin B, 0.077 nM; on Cathepsin K [2] it was 0.009 nM; at Pro-cathepsin H, 1.4 nM. The matching figures for `C[C@@H](CC1CCCCC1)OC(=O)CN(C)C#N`: 1500 nM, 2600 nM, 26 nM and greater than 13000 nM.

On Cathepsin K [2], `C[C@@H](C#N)NC(=O)O[C@@H](C)CC1CCCCC1` came in with a Ki greater than 13000 nM.

For the molecule `C[C@@H](CC1CCCCC1)NC(=O)CN(C)C#N`, on Cathepsin K [2], the inhibition constant Ki is 830 nM. On to `C[C@@H](CC1CCCCC1)OC(=O)[C@@H]1CCCN1C#N`, for which, on Cathepsin K [1], the Ki is 1.8 nM.

Turning to `C[C@@H](CC1CCCCC1)OC(=O)NCC#N`, the affinity at Cathepsin K [2], expressed as Ki, was 7900 nM. As for `CCCN(C#N)NC(=O)O[C@@H](C)CC1CCCCC1`, the affinity at Cathepsin K [2], expressed as Ki, was 0.004 nM. Same read-out and setting: the result for `C[C@@H](CC1CCCCC1)OC(=O)NN(C#N)C(C)(C)C` reads 1500 nM. Turning to `C[C@@H](CC1CCCCC1)OC(=O)N(C)N(C)C#N`, at Cathepsin K [2], the Ki is 62 nM. This Ki lies about 24-fold lower than the previous one. For the molecule `CC[C@@H](Cc1ccccc1)OC(=O)NN(C)C#N`, the Ki on Procathepsin L is 0.036 nM; at Cathepsin K [3], 0.072 nM; on Cathepsin B, 0.25 nM; on Cathepsin K [2], 0.032 nM. As for `C[C@@H](CC1CCCCC1)OC(=O)[C@H](C)N(C)C#N`, the Ki on Cathepsin K [2] came out at 2300 nM. As to `CCCCN(C#N)NC(=O)O[C@@H](C)CC1CCCCC1`, the Ki at Cathepsin K [2] was determined as 0.007 nM. This lies in the picomolar range.
